Assay results reported in patent publication US8546338B2, “Self-assembling hydrogels based on dicephalic peptide amphiphiles” (Johnson & Johnson Consumer Companies, Inc., priority 2010, dated 2013).
Where a SMILES comes first, the peptide text is derived from it. Where no end group is shown, it is not given here. The star is where a group is joined. Palmitoyl = CCCCCCCCCCCCCCCC(=O)*

How the values were obtained:
Format in all cases: physicochemical
[1] = Gelation experiments: inversion test for self-supporting hydrogels; details: for Gelation (self-supporting gel on inversion), DMEM: DPA solution in water mixed 1:1 with DMEM; for Gelation (self-supporting gel on inversion), DMEM / Concentration at which gel forms, DMEM: no calcium added; for Gelation (self-supporting gel on inversion), PBS / Gelation (self-supporting gel on inversion), Water: final concentrations 1, 2 and 4 weight percent tested; for Concentration at which gel forms, DMEM: mixed with DMEM; for Gelation under all conditions tested: 2-4 wt %, water, DMEM and DMEM plus calcium; for Concentration at which gel forms, PBS / Gelation (self-supporting gel on inversion), PBS / Gelation under all conditions tested: PBS; for Gelation (self-supporting gel on inversion), Calcium added: DMEM plus 10 μl of 100 mg/cc calcium chloride solution; for Concentration at which gel forms, Calcium added: DMEM with calcium chloride added
Description: Inversion tests were performed to determine qualitatively under which conditions the various DPAs formed self-supporting hydrogels. The various types of DPAs were tested by dissolving them in ultrapure water (>18 MΩ resistivity) at double the desired final concentration followed by mixing in a 1:1 ratio with different liquid mediums. Gelation was deemed to have occurred if the gel supported its own weight upon inverting the vial (FIG. 3A and FIG. 3B). Gelation was tested at final concentrations of 1, 2 and 4 weight percent. We tested phosphate buffered saline (PBS), and Dulbecco's modified eagle media (DMEM) as liquid medium. Typical scale is 100 μl each of DPA solution in water and mixing medium but other scales have been tested. Finally, if no spontaneous gelation occurs, 10 μl of 100 mg/cc calcium chloride solution was added to induce gelation.

[2] = Oscillating rheology, time sweep (kinetics of formation); details: for Gel point after mixing: 2 wt % gels in DMEM
Description: (§1) Oscillating rheology by the parallel plates method (radius=25 mm) was performed on 400 μl gels to assess the mechanical strengths of gels. Time sweeps were performed to evaluate kinetics of formation at a constant strain rate of 1% and frequency of 1 rad/s. Strain sweeps were performed ranging from 1-100% strain in increments of 2% at a constant frequency of 1 rad/s. Cross-over of G′ and G″ was used to determine the gel point and point of breakdown. Time sweeps were initiated immediately after mixing the solutions that lead to DPA hydrogel formation. In the strain sweeps, the gels were allowed to form on the plate for 30 minutes before the measurement is initiated.
The gelation process was initiated on the plate at 25° C. by the addition of 10 μl of 100 mg/ml calcium chloride solution to a solution of the DPA in DMEM.

[3] = Oscillating rheology, strain sweep; details: 2 wt % gels in DMEM
Description: as §1
Strains sweeps were performed on 2 wt % Gly-Phe-Gly-Phe-Gly-Phe-Gly-Gln-Gln-Ser (SEQ ID NO: 8), Gly-Phe-Gly-Phe-Gly-Phe-Gly-Gln-Gly-Ser (SEQ ID NO: 12) and Gly-Phe-Gly-Phe-Gly-Phe-Gly-Asn-Asn-Ser (SEQ ID NO: 11) gels in DMEM (FIG. 8). Gels were allowed to form for 30 minutes before the experiment was initiated.

[4] = listed as linear peptide amphiphile analogue

Molecule | Gelation (self-supporting gel on inversion), DMEM [1] | Gelation (self-supporting gel on inversion), PBS [1] | Gelation (self-supporting gel on inversion), Water ([1]; in water) | Concentration at which gel forms, DMEM [1] | Gelation (self-supporting gel on inversion), Calcium added [1] | other results
CCCCCCCCCCCCCCCC(=O)NC(C(=O)NCC(=O)N[C@@H](Cc1ccccc1)C(=O)NCC(=O)N[C@@H](Cc1ccccc1)C(=O)NCC(=O)N[C@@H](Cc1ccccc1)C(=O)NCC(=O)N[C@@H](CC(N)=O)C(=O)N[C@@H](CC(N)=O)C(=O)N[C@@H](CO)C(=O)O)C(=O)NCC(=O)N[C@@H](Cc1ccccc1)C(=O)NCC(=O)N[C@@H](Cc1ccccc1)C(=O)NCC(=O)N[C@@H](Cc1ccccc1)C(=O)NCC(=O)N[C@@H](CC(N)=O)C(=O)N[C@@H](CC(N)=O)C(=O)N[C@@H](CO)C(=O)O [Gly-Phe-Gly-Phe-Gly-Phe-Gly-Asn-Asn-Ser] | Yes, | Yes, | Yes, | 2% | – | Concentration at which gel forms, PBS [1]: 4%; Concentration at which gel forms, Water ([1]; in water): 2%; Gel point after mixing [2]: instantaneous; Rheological properties in kinetics of formation experiment, comparison ([2]; polar, non-charged solubility enhancing regions compared): highest rheological properties; Initial strength in strain sweep, comparison [3]: highest initial strength; Strain at which decline in properties starts ([3]; formed for 30 minutes): 15 % strain; Strain at which gel re-crosses the transition point (breakdown) ([3]; formed for 30 minutes): 42 % strain; Strain at which gel re-crosses the transition point (breakdown) ([3]; formed for 30 minutes, listed as Asn-Asn-Ser (SEQ ID NO: 29)): 40 % strain
CCCCCCCCCCCCCCCC(=O)NC(C(=O)NCC(=O)N[C@@H](Cc1ccccc1)C(=O)NCC(=O)N[C@@H](Cc1ccccc1)C(=O)NCC(=O)N[C@@H](Cc1ccccc1)C(=O)NCC(=O)N[C@@H](CC(N)=O)C(=O)NCC(=O)N[C@@H](CO)C(=O)O)C(=O)NCC(=O)N[C@@H](Cc1ccccc1)C(=O)NCC(=O)N[C@@H](Cc1ccccc1)C(=O)NCC(=O)N[C@@H](Cc1ccccc1)C(=O)NCC(=O)N[C@@H](CC(N)=O)C(=O)NCC(=O)N[C@@H](CO)C(=O)O [Gly-Phe-Gly-Phe-Gly-Phe-Gly-Asn-Gly-Ser] | Yes, | No | No | 2% | – | –
CCCCCCCCCCCCCCCC(=O)NC(C(=O)NCC(=O)N[C@@H](Cc1ccccc1)C(=O)NCC(=O)N[C@@H](Cc1ccccc1)C(=O)NCC(=O)N[C@@H](Cc1ccccc1)C(=O)NCC(=O)N[C@@H](CCC(N)=O)C(=O)NCC(=O)N[C@@H](CO)C(=O)O)C(=O)NCC(=O)N[C@@H](Cc1ccccc1)C(=O)NCC(=O)N[C@@H](Cc1ccccc1)C(=O)NCC(=O)N[C@@H](Cc1ccccc1)C(=O)NCC(=O)N[C@@H](CCC(N)=O)C(=O)NCC(=O)N[C@@H](CO)C(=O)O [Gly-Phe-Gly-Phe-Gly-Phe-Gly-Gln-Gly-Ser] | Yes, | Yes, | No | 2% | – | Concentration at which gel forms, PBS [1]: 2%; Gelation characteristics, qualitative comparison ([1]; compared to the SEQ ID NO: 8 DPA): formed more rapidly and appears to be stronger; Gel point after mixing [2]: instantaneous; Strain at which gel re-crosses the transition point (breakdown) ([3]; formed for 30 minutes): 99 % strain; Strain at which gel re-crosses the transition point (breakdown) ([3]; formed for 30 minutes, listed as Gln-Gly-Ser (SEQ ID NO: 30)): ~100 % strain
GFGFGFGQQS-OH [Gly-Phe-Gly-Phe-Gly-Phe-Gly-Gln-Gln-Ser, reference compound] | No | No | No | – | No | Gelation under all conditions tested [1]: did not form any gels

Second part, led by results:

Gelation (self-supporting gel on inversion), DMEM [1] | Gelation (self-supporting gel on inversion), PBS [1] | Gelation (self-supporting gel on inversion), Water ([1]; in water) | Concentration at which gel forms, DMEM [1] | Gelation (self-supporting gel on inversion), Calcium added [1] | Molecule | other results
Yes, | No | No | 2% | – | CCCCCCCCCCCCCCCC(=O)NC(C(=O)NCC(=O)N[C@@H](Cc1ccccc1)C(=O)NCC(=O)N[C@@H](Cc1ccccc1)C(=O)NCC(=O)N[C@@H](Cc1ccccc1)C(=O)NCC(=O)NCC(=O)N[C@@H](CC(N)=O)C(=O)N[C@@H](CO)C(=O)O)C(=O)NCC(=O)N[C@@H](Cc1ccccc1)C(=O)NCC(=O)N[C@@H](Cc1ccccc1)C(=O)NCC(=O)N[C@@H](Cc1ccccc1)C(=O)NCC(=O)NCC(=O)N[C@@H](CC(N)=O)C(=O)N[C@@H](CO)C(=O)O [Gly-Phe-Gly-Phe-Gly-Phe-Gly-Gly-Asn-Ser] | –
Yes, | No | No | 2% | – | CCCCCCCCCCCCCCCC(=O)NC(C(=O)NCC(=O)N[C@@H](Cc1ccccc1)C(=O)NCC(=O)N[C@@H](Cc1ccccc1)C(=O)NCC(=O)N[C@@H](Cc1ccccc1)C(=O)NCC(=O)NCC(=O)N[C@@H](CCC(N)=O)C(=O)N[C@@H](CO)C(=O)O)C(=O)NCC(=O)N[C@@H](Cc1ccccc1)C(=O)NCC(=O)N[C@@H](Cc1ccccc1)C(=O)NCC(=O)N[C@@H](Cc1ccccc1)C(=O)NCC(=O)NCC(=O)N[C@@H](CCC(N)=O)C(=O)N[C@@H](CO)C(=O)O [Gly-Phe-Gly-Phe-Gly-Phe-Gly-Gly-Gln-Ser] | –
No | No | No | – | No | CCCCCCCCCCCCCCCC(=O)NC(C(=O)NCC(=O)N[C@@H](Cc1c[nH]c2ccccc12)C(=O)NCC(=O)N[C@@H](Cc1c[nH]c2ccccc12)C(=O)NCC(=O)N[C@@H](Cc1c[nH]c2ccccc12)C(=O)NCC(=O)N[C@@H](CCC(N)=O)C(=O)N[C@@H](CCC(N)=O)C(=O)N[C@@H](CO)C(=O)O)C(=O)NCC(=O)N[C@@H](Cc1c[nH]c2ccccc12)C(=O)NCC(=O)N[C@@H](Cc1c[nH]c2ccccc12)C(=O)NCC(=O)N[C@@H](Cc1c[nH]c2ccccc12)C(=O)NCC(=O)N[C@@H](CCC(N)=O)C(=O)N[C@@H](CCC(N)=O)C(=O)N[C@@H](CO)C(=O)O [Gly-Trp-Gly-Trp-Gly-Trp-Gly-Gln-Gln-Ser] | Gelation under all conditions tested [1]: no gelation was observed
does not gel and No | does not gel and No | does not gel and No | – | does form gels and Yes | CCCCCCCCCCCCCCCC(=O)NC(C(=O)NCC(=O)N[C@@H](Cc1ccc(O)cc1)C(=O)NCC(=O)N[C@@H](Cc1ccc(O)cc1)C(=O)NCC(=O)N[C@@H](Cc1ccc(O)cc1)C(=O)NCC(=O)N[C@@H](CCC(N)=O)C(=O)N[C@@H](CCC(N)=O)C(=O)N[C@@H](CO)C(=O)O)C(=O)NCC(=O)N[C@@H](Cc1ccc(O)cc1)C(=O)NCC(=O)N[C@@H](Cc1ccc(O)cc1)C(=O)NCC(=O)N[C@@H](Cc1ccc(O)cc1)C(=O)NCC(=O)N[C@@H](CCC(N)=O)C(=O)N[C@@H](CCC(N)=O)C(=O)N[C@@H](CO)C(=O)O [Gly-Tyr-Gly-Tyr-Gly-Tyr-Gly-Gln-Gln-Ser] | Concentration at which gel forms, Calcium added [1]: 2%
No | No | No | – | Yes, | CCCCCCCCCCCCCCCC(=O)NCC(=O)N[C@@H](Cc1ccccc1)C(=O)NCC(=O)N[C@@H](Cc1ccccc1)C(=O)NCC(=O)N[C@@H](Cc1ccccc1)C(=O)NCC(=O)N[C@@H](CCC(N)=O)C(=O)N[C@@H](CCC(N)=O)C(=O)N[C@@H](CO)C(=O)O [reference compound] (Palmitoyl-GFGFGFGQQS-OH) | Gelation (self-supporting gel on inversion), Calcium added [1, 4]: could be gelled; Concentration at which gel forms, Calcium added [1]: 2%; Gelation (self-supporting gel on inversion), DMEM [1, 4]: did not form gels; Gelation (self-supporting gel on inversion), PBS [1, 4]: did not form gels; Gelation (self-supporting gel on inversion), Water ([1]; in water, listed as linear peptide amphiphile analogue): did not form gels
